Assay [1] addresses T1, β5 subunit of the human constitutive proteasome (CPS) (Homo sapiens, UniProt P28074).
T1 construct: purchased Boston Biochem E-360
Nature of the assay: β5 inhibition assay, human constitutive proteasome (Suc-LLVY-AMC). It is filed as biochemical. The following applies: IC50 class, Suc-LLVY-AMC substrate. As for the experimental part:
The enzymatic activity of the β5 subunit of the human constitutive proteasome (CPS) is analyzed. In another assay, which differs from the assay of the human constitutive proteasome only in using the human immunoproteasome (IPS) the enzymatic activity of the β5 subunit of the human immunoproteasome (IPS) is analyzed. […] Inhibition is indicated as IC50 [nM] (“-”=not measured).

The target in assay [2] is T2, β5 subunit of the human immunoproteasome (IPS) (Homo sapiens, UniProt P28062).
T2 construct: purchased Boston Biochem E-370
Briefly: β5 inhibition assay, human immunoproteasome (Suc-LLVY-AMC). It is filed as biochemical. The settings on record: IC50 class, Suc-LLVY-AMC substrate. In outline:
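β5 activity is read as liberated AMC fluorescence (355/460 nm) after 4 h dark reaction at RT with 22.6 μM Suc-LLVY-AMC, stopped by 1 μM bortezomib. Beforehand, 1 nM human IPS and compound sat 10 min at RT in HEPES pH 7.5 buffer containing NaCl, 0.02% SDS and DTT.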

The test system of another assay is HT-29 cells. Nature of the assay: CellTiter-Glo luminescent cell viability assay with HT-29 cells (72h incubation). The assay is classed as cell-based, human. The settings on record: Homo sapiens, HT-29, HT29 cells, read-out: CTG HT29. A digest of the protocol:
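Viability read as CellTiter-Glo luminescence after 72 h compound exposure, with 10 μM staurosporine and DMSO as control wells. Seeding 400 cells per well, compound added 24 h post-plating; IC50 from curve fitting.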
(In general: ATP-based viability assays read luminescence as a measure of living cells.)

The test system of assay [3] is A549 (human lung carcinoma cell line). Nature of the assay: Glo assay of A549 cells (Table 3; ProteasomeGlo plating scheme). It is filed as cell-based. The following applies: Homo sapiens; A549 cells; read-out: PGLo A549. A digest of the protocol:
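Compound treatment lasts 105 minutes at 37° C. under 5% CO2. Suc-LLVY-Glo substrate premixed with detection reagent (60 min at room temperature) is then added directly to the cells, and luminescence after 10-15 min in the dark gives the IC50 in nM.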

In a further assay the test system is Karpas cells. Briefly: Glo assay of Karpas cells (Table 3; ProteasomeGlo plating scheme). The assay is classed as cell-based. The settings on record: read-out: Pglo Karpas. From the text:
Inhibition is indicated as IC50 [nM] (“-”=not measured). […] • Chymotrypsin-Like Cell-Based Proteasome-GloTM Assay (Promega; […]) • Cell culture 384-well plates (Greiner BioOne; 781080) • Dispensing cassette, MultiDrop Standard tube dispensing cassette (Thermo Scientific; 24072670) • DPBS (Pan BioTech; P04-36500) • Cell culture 384-well plates (Greiner BioOne; 781080) • CPD source plate: diamond-shape plate (Labcyte; LP-0200) • Intermediate plate (Labcyte; P-05525) [table] • a. Remove the plates with cells from the incubator. • b. Take all the plates including the compound plate, intermediate plate and Staurosporine plate to the ECHO. • c. Click on “Open” in the ECHO software and select the protocol “QLI5_25ul_30 uM-Grenier”. • d. Follow the on-screen prompts and instructions once you click “Start” to insert the compound plate, intermediate plate and destination plates. • e. Change the final number of destination plates on the program. • f. Follow the on-screen prompts and instructions once you click “Start” to load the Staurosporine and destination plates. • g. Once all the compounds, DMSO and Staurosporine have been transferred, place the destination plates in a wet tissue box. • h. Place the destination plates back into the incubator and incubate at 37° C., 5% CO2 for 105 minutes. • i. Re-seal all the compound+Stauro diamond and intermediate plates and store in the dark. Chymotrypsin like ProteasomeGlo Assay • 1. Thaw the components of the ProteasomeGlo assay at room temperature including the ProteasomeGlo Buffer, the lyophilized Luciferin Detection Reagent and the Suc-LLVY-Glo Substrate. • 2. Reconstitute the Luciferin Detection Reagent in the amber coloured bottle by adding 50 ml of the ProteasomeGlo Buffer. • 3. Vortex the Suc-LLVY-Glo Substrate briefly to reconstitute the Substrate well. • 4. Spin down the Substrate and add 250 μl of the Substrate to the reconstituted Luciferin Detection Reagent from step 2. • 5. Briefly vortex the amber bottle with the mix to prepare a homogenous solution. • 6. Place the mix prepared in step 5 to sit at room temperature for 60 minutes. • 7. After 60 minutes, pipette 25 μl of the mix from step 5 into all wells with the cells. • 8. Shake the plates for 2-5 minutes to ensure the complete mixing of the ProteasomeGlo reagent with the cells. • 9. Leave the plates in the dark for 10-15 minutes. • 10. Measure the luminescence read-out using the Viktor and the protocol “Luminescence_384Well_0.2 sec”. (Note: The Protoeasome-GloTM Reagent (combined Proteasome-GloTM Substrate, Proteasome-GloTM Buffer and Luciferin Detection Reagent) can be stored at 4° C. or -20° C. for 1 month with minimal loss of activity.)

For assay [4], the system named is B-cells isolated from PBMC's. Nature of the assay: Chymotrypsin-like ProteasomeGlo assay in B-cells isolated from PBMCs. The settings on record: Homo sapiens; B-cells isolated from PBMC's; read-out: Pglo B-Cell. It is filed as cell-based, human. From the text:
PBMC's will be isolated from human blood followed by B-cell isolation from the PBMC's using the Miltenyi Isolation Kit. • 2. This experiment will use the Chymotrypsin-like ProteasomeGlo read-out to generate IC50's following compound treatment. • 3. Dilute all compounds 1:100 for the assay. • 4. […] Repeat the DMSO transfer with lane 12. • 5. Lane 12 should not be seeded with any cells. Only medium! • 6. For all steps, make sure the samples and reagents remain cool! • 7. While dealing with the buffy coats, be careful to not let any exposed skin to be in direct contact with the blood. […] PBMC isolation followed by B-cell isolation using the Miltenyi Kit • Day 2: B-cell plating, ECHO transfer and ProteasomeGlo assay For the initial steps and to make processing the buffy coats easier, separately process the buffy coats. • a. Cut the tube attached to the buffy coats carefully using a clean, sterile and fresh scalpel. • b. Transfer the blood into 2 individual 50 ml falcons. • c. Add an equal volume of DPBS to the blood in the falcons. • d. Add 20 ml of lymphocyte separating medium to two 50 ml falcons. • e. Carefully pour 15-20 ml of the blood+DPBS mix from step c. onto the lymphocyte separating medium from step d. • f. Centrifuge the falcons with the lymphocyte separating medium+blood mix at 800×g for 15 minutes using a swing-out rotor. • g. Following centrifugation, carefully remove the falcons from the centrifuge. • h. The following layers will be observed: • i. Aspirate the plasma layer off carefully without disturbing the different layers. • j. Remove the cell pellet using a pipette into two fresh 50 ml falcons. • k. Fill the falcons with the cells up to 50 ml with DPBS. • l. Centrifuge the falcons at 250×g for 10 minutes using a swing-out rotor (Brake-off). • m. Aspirate the complete DPBS off the cells without disturbing the cell pellet at the bottom of the falcon. • n. Re-suspend the cell pellet in 10 ml of 1×RBC lysis buffer. • o. Incubate the falcons at room temperature in the dark for 10 minutes. • p. After RBC lysis, centrifuge the tubes at 250×g for 10 minutes using a swing-out rotor (brake-off). • (*Note: If the cell pellet is still red or light red, repeat steps n. to p.!) • q. Re-suspend the cell pellet in DPBS up to 50 ml in the falcon. • r. Centrifuge the falcons at 250×g for 10 minutes using a swing-out rotor (Brake-off). • s. Aspirate the DPBS off the cells without disturbing the cell pellet at the bottom of the falcon. • t. Repeat the wash step as described in steps q. to s. 2× times more (total number of washes is 3×). • u. Aspirate the DPBS completely off the cell pellet after the last wash without disturbing the cell pellet. • v. Re-suspend the cell pellet in 20 ml of PBMC cell medium. • w. […] Re-suspend the pellet in volume of the B-cell isolation buffer calculated as follows: • k. Mix well using a 1 ml pipette and incubate the mix on ice for 20 mins. • l. In the meantime, equilibrate one LS Column as follows: • 1. Insert one LS Column into one slot of the separator as depicted in the pictures above. • 2. Place a 50 ml falcon at the bottom of the LS column to collect the wash flow-through. • 3. Add 3 ml of the B-cell isolation buffer into the column. • 4. Allow the buffer to flow-through making sure that the entire volume passes the column and that the column reservoir is empty before the addition of the cells. • 5. Remove the falcon with the flow-through and discard. • m. Place a fresh 50 ml falcon under the LS Column to collect the untouched B-cells isolated from the PBMCs. • n. Apply the entire volume of the cell+antibody+microbeads mix to the LS Column. • o. Collect the flow-through from each application of the mix into the same 50 ml falcon under the LS Column. • p. Once the complete volume of the cell+antibody+microbead mix has been passed through, proceed to washing of the column. • q. Add 3 ml of the B-cell isolation buffer to the LS Column and allow the buffer to flow-through. […]

Assay [5] relates to MDA-MB-468 (breast carcinoma). Briefly: 48 hr CTG viability assay, MDA-MB-468. The assay is classed as cell-based. The following applies: Homo sapiens. As for the experimental part:
A viability assay was conducted for 48 hours to evaluate the inhibition of cancer cell growth by proteasome inhibitors. Briefly, the candidate cell line was plated with a 96-well plate following density of cells, respectively. 6×10^3 Cells/well for A2780 (human ovarian cancer cell line) and MDA-MB-468 (breast carcinoma), 8×10^3 Cells/well for Hs746T (human gastric carcinoma cell line), 1.1×10^4 Cells/well for MM1 S and RPMI 8226 (multiple myeloma). After 24 hours, the cells were treated with various concentrations of the compound (ranging from 0.0015 uM to 10 uM). […] After 48 hours of incubation at 37° C., 5% CO2 incubator, cells were analyzed for viability using the CellTiter-Glo Luminescent Cell Viability assay (Promega, Cat #G7570). All viability assays were performed in duplicate and Luminescence was read using an Envision (Perkin Elmer, USA). Data were analyzed using XLfit software. […] (human gastric carcinoma cell line), MM1 S (B lymphoblast cell line), and RPMI 8226 (B lymphocyte cell line, multiple myeloma). Inhibition is indicated as IC50 [nM] (“-”=not measured).

Assay [6] concerns Hs 746T (human gastric carcinoma cell line). Briefly: 48 hr CTG viability assay, Hs 746T. The following applies: Hs746T, 48 hr CTG, read-out: Hs 746T IC50. The assay is classed as cell-based. A digest of the protocol: (§1)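 Growth inhibition by compound over 48 h; IC50 (nM) derived from duplicate CellTiter-Glo luminescence readings across 0.0015–10 uM.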
Assay [7] has as its system MM1 S (B lymphoblast cell line). Nature of the assay: 48 hr CTG viability assay, MM1S. The assay is classed as cell-based. The settings on record: Homo sapiens, 48 hr CTG, read-out: MM1S IC50. A digest of the protocol:
as §1

For assay [8], the system named is RPMI 8226 (B lymphocyte cell line, multiple myeloma). Briefly: 48 hr CTG viability assay, RPMI 8226. The assay is classed as cell-based. The following applies: Homo sapiens, RPMI-8226; 48 hr CTG; read-out: RPMI-8226 IC50. A digest of the protocol:
as §1

As to `Cc1ccc2cc1CNC(=O)[C@H](CCc1ccccc1)NC(=O)CCCC(=O)N1CCCC(CCO2)C1` (stereo partly drawn) [Compound 19, (9S)-5^4-methyl-9-phenethyl-4-oxa-7,10-diaza-1(3,1)-piperidina-5(1,3)-benzenacyclopentadecaphane-8,11,15-trione], the IC50 is < 100 nM in assay [1]; < 100 nM in [2]; 1000 to 5000 nM with HT-29 cells; 1000 to 5000 nM in assay [3]; 500 to 1000 nM in the assay on Karpas cells.

With `Cc1cc(C)c2cc1CNC(=O)[C@H](CCc1ccccc1)NC(=O)CCC(=O)N1CCCC(CCO2)C1` (stereo partly drawn) [Compound 59, (9R)-5^4,5^6-dimethyl-9-phenethyl-4-oxa-7,10-diaza-1(3,1)-piperidina-5(1,3)-benzenacyclotetradecaphane-8,11,14-trione], the IC50 in the assay with HT-29 cells was 1000 to 5000 nM; in [4] it was 100 to 500 nM.

Take `Cc1ccc2cc1CNC(=O)[C@H](CCc1ccccc1)NC(=O)[C@@H](NC(=O)Cc1ccc(NC(=O)[C@@H](N)CCC(=O)O)cc1C)CC(=O)N1CCCC(CCO2)C1` (stereo partly shown) [Compound 574]: the IC50 in [5], in assay [6], in [7] and in assay [8] was < 100 nM in each case.

Consider `Cc1ccc2cc1CNC(=O)[C@H](CCc1ccccc1)NC(=O)[C@@H](NC(=O)C(F)(F)CO)CC(=O)N1CCCC(CCO2)C1` (stereo partly drawn) [Compound 599, 2,2-difluoro-3-hydroxy-N-((9S,12S)-5^4-methyl-8,11,14-trioxo-9-phenethyl-4-oxa-7,10-diaza-1(3,1)-piperidina-5(1,3)-benzenacyclotetradecaphane-12-yl)propanamide], for which the IC50 in assay [1], in assay [2], in assay [3], in assay [5], in [6] and in assay [7] was < 100 nM throughout. The IC50 in assay [8] is < 100 nM.

`Cc1ccc2cc1CNC(=O)[C@H](CCc1ccccc1)NC(=O)[C@@H](NC(=O)C1(CO)CC1)CC(=O)N1CCCC(CCO2)C1` (stereo partly drawn) [Compound 664, 1-(hydroxymethyl)-N-((9S,12S)-5^4-methyl-8,11,14-trioxo-9-phenethyl-4-oxa-7,10-diaza-1(3,1)-piperidina-5(1,3)-benzenacyclotetradecaphane-12-yl)cyclopropane-1-carboxamide]: the IC50 in assay [1], in assay [2], in [3], in assay [5], in assay [6] and in assay [7] was < 100 nM each time. Besides, the IC50 in assay [8] was < 100 nM.

The record behind these values is patent US20240415819A1, “MACROCYCLIC COMPOUNDS AS PROTEASOME SUBUNIT BETA TYPE-5 INHIBITORS” (Lead Discovery Center GmbH, priority 2021, published 2024).
